The source of these data is patent US20020026052A1, “3-cyanoquinolines, 3-cyano-1,6-naphthyridines, and 3-cyano-1,7-naphthyridines as protein kinase inhibitors” (American Home Products Corporation, priority 2000, published 2002).

As usually defined, the melting point is the temperature, or range, at which the solid turns liquid.

Values joined by “and” are separate entries in the source; they are usually repeats but may differ in a detail not shown here. Identical values can stand only once.

Data set [1] addresses Rat2 fibroblasts stably transformed with v-Src/Hu c-Src fusion gene (Homo sapiens, UniProt P12931, cells depend on it, form not given). In words: Anchorage Independent Src-transformed Fibroblast Proliferation Assay. Type of data set: cell-based, Rat. Particulars: suspension growth, MTS reagent on Day 5; read-out: anch-indep src-tx fib IC50. The method, then:
Anchorage Independent Src-transformed Fibroblast Proliferation Assay
Rat2 fibroblasts stably transformed with a plasmid containing a CMV promotor controlled v-Src/Hu c-Src fusion gene in which the catalytic domain of human c-Src was inserted in place of the v-Src catalytic domain in the v-Src gene are used for the measurement of src dependent suspension growth. […] Multiple entries for a given compound indicate that it was tested multiple times.
For orientation: Formazan colour is commonly taken as a measure of viable cells.

Chain of Rat2 fibroblasts stably transformed with v-Src/Hu c-Src fusion gene (P12931 whole entry, change not shown, the tested form may be a part): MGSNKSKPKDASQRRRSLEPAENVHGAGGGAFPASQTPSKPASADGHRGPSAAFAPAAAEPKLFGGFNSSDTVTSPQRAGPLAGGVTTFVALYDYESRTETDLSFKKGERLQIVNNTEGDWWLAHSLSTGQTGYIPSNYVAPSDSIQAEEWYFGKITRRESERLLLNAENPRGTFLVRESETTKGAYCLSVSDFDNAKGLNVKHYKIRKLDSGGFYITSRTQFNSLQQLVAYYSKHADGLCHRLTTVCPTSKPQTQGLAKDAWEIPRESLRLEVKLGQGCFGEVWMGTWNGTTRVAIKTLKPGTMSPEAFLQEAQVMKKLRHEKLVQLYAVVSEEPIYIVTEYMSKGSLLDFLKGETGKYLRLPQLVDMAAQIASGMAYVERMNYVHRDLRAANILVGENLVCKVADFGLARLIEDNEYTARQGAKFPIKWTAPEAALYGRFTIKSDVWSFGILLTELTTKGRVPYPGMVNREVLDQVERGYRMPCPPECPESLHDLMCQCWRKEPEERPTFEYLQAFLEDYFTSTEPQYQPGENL

Compound `COc1cc(Nc2c(C#N)cnc3cc(-c4ccc(CN(C)C)cc4)ccc23)c(Cl)cc1Cl` [Example 86, 4-(2,4-dichloro-5-methoxyanilino)-7-{4-[(dimethylamino)methyl]phenyl}-3-quinolinecarbonitrile] had a melting point of 187 to 189 °C. In addition, in data set [1], the GI50 was determined as 0.21 µM.
Turning to `COc1cc(Nc2c(C#N)cnc3cc(-c4ccc(CNCCS(=O)(=O)c5ccccc5)cc4)ccc23)c(Cl)cc1Cl` [Example 85, 4-(2,4-dichloro-5-methoxyanilino)-7-[4-({[2-(phenylsulfonyl)ethyl)amino}methyl)phenyl]-3-quinolinecarbonitrile], the melting point is 198 to 201 °C. In data set [1], the GI50 was 10.2 µM.
For `COc1cc(Nc2c(C#N)cnc3cc(-c4csc(CN5CCOCC5)c4)ccc23)c(Cl)cc1F` [Example 79, 4-{2-Chloro-4-fluoro-5-methoxyanilino)-7-[5-(4-morpholinylmethyl)-3-thienyl]-3-quinolinecarbonitrile], in that order: 185 to 187 °C and 0.13 µM.
With `COc1cc(Nc2c(C#N)cnc3cc(-c4ccc5ccccc5c4)ccc23)c(Cl)cc1Cl` [Example 117, 4-(2,4-Dichloro-5-methoxyanilino)-7-(2-naphthyl)-3-quinolinecarbonitrile], the melting point fell in the range of 243 to 244 °C. The GI50 in data set [1] is 6.9 µM.
In turn, `COc1cc(Nc2c(C#N)cnc3cc(-c4ccc(C=O)o4)ccc23)c(Cl)cc1Cl` [Example 6, 4-(2,4-Dichloro-5-methoxyanilino)-7-(5-formyl-2-furyl)-3-quinolinecarbonitrile] showed a melting point of more than 250 °C. Also, in data set [1], the GI50 stood at 1.6 µM.
For `COc1cc(Nc2c(C#N)cnc3cc(-c4cnc(C=O)n4C)c(OC)cc23)c(Cl)cc1Cl` [Example 228, 4-(2,4-Dichloro-5-methoxyanilino)-7-(2-formyl-1-methyl-1H-imidazol-5-yl)-6-methoxy-3-quinolinecarbonitrile], in that order: 141 to 144 °C and more than 10 µM.
The compound `N#Cc1cnc2cc(C=CCCCN3CCOCC3)ccc2c1Nc1ccc(Cl)cc1Cl` (mixture of isomers) [Example 12, 4-(2,4-Dichloroanilino)-7-[(E/Z)-5-(4-morpholinyl)-1-pentenyl]-3-quinoline-carbonitrile] yielded a melting point of 70 to 72 °C. Moreover, the GI50 in data set [1] is more than 10 µM.
The compound `COc1cc(Nc2c(C#N)cnc3cc(-c4ccc(CN5CCS(=O)(=O)CC5)cc4)ccc23)c(Cl)cc1Cl` [Example 150, 4-[(2,4-Dichloro-5-methoxyphenyl)amino]-7-{4-[(1,1-dioxido-4-thiomorpholinyl)methyl]phenyl}-3-quinolinecarbonitrile] registered a melting point of 248 to 251 °C. Besides, the GI50 in data set [1] is 0.5 µM and 0.52 µM.
As to `CCN(CC)Cc1ccc(-c2ccc3c(Nc4cc(OC)c(Cl)cc4Cl)c(C#N)cnc3c2)cc1` [Example 87, 4-(2,4-Dichloro-5-methoxyanilino)-7-{4-[(diethylamino)methyl]phenyl}-3-quinolinecarbonitrile], the melting point was 191 to 195 °C. Also, the GI50 in data set [1] was determined as 0.22 µM.
`COc1cc(Nc2c(C#N)cnc3cc(-c4ccc(CN5CCOCC5)n4C)ccc23)c(Cl)cc1Cl` [Example 70, 4-(2,4-Dichloro-5-methoxyanilino)-7-[1-methyl-5-(4-morpholinylmethyl)-1H-pyrrol-2-yl]-3-quinolinecarbonitrile]: the melting point was 208 to 210 °C. Further, the GI50 in data set [1] amounted to 6 µM.
For `N#Cc1cnc2cc(-c3csc(CN4CCOCC4)c3)ccc2c1Nc1ccc(Cl)cc1Cl` [Example 25, 4-(2,4-Dichloroanilino)-7-[5-(4-morpholinylmethyl)-3-thienyl]-3-quinolinecarbonitrile], the melting point fell in the range of 203 to 205 °C. Further, the GI50 in data set [1] is 1.3 µM and 0.93 µM.
